Results reported in ChEMBL document CHEMBL1201862, “PubChem BioAssay data set” (2004).
Counter-ions that a name gives are not always drawn.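 The compound was tested at five concentrations on cells cultured in 96-well plates, with a 48-hour exposure period. GI50 marks 50% less growth.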 Activity calls are given as the source filed them. Cut-off read from the data, not from the text of the source: active = GI50 up to about 1.1 µM and inactive = higher. Residues, ends and D or L forms follow the SMILES beside them. *: point of attachment. Boc = CC(C)(C)OC(=O)*

Legend:
Assay in all cases: NCI tumour cell line growth inhibition, 48 h
SW-620 = test system: SW-620
UACC-62 = test system: UACC-62
Malme-3M = test system: Malme-3M
SK-OV-3 = test system: SK-OV-3
SNB-19 = test system: SNB-19
LOX IMVI = test system: LOX IMVI
HT-29 = test system: HT-29
MCF7 = test system: MCF7
RXF 393 = test system: RXF 393
UO-31 = test system: UO-31
OVCAR-5 = test system: OVCAR-5
DU-145 = test system: DU-145
SK-MEL-28 = test system: SK-MEL-28
M14 = test system: M14
COLO 205 = test system: COLO 205
HOP-92 = test system: HOP-92
MOLT-4 = test system: MOLT-4
SN12C = test system: SN12C
EKVX = test system: EKVX
BT-549 = test system: BT-549

Row | Compound | GI50 (SW-620) | GI50 (UACC-62) | GI50 (Malme-3M) | GI50 (SK-OV-3) | GI50 (SNB-19) | GI50 (LOX IMVI) | GI50 (HT-29) | GI50 (MCF7) | GI50 (RXF 393) | GI50 (UO-31) | GI50 (OVCAR-5) | GI50 (DU-145) | GI50 (SK-MEL-28) | GI50 (M14) | GI50 (COLO 205) | GI50 (HOP-92) | GI50 (MOLT-4) | GI50 (SN12C) | GI50 (EKVX) | GI50 (BT-549)
1 | [N-]=[N+]=Nc1c(Cc2ccccc2)c(Cl)nc2ccccc12 | 33.4 µM (inactive) | 22.6 µM (inactive) | 21.1 µM (inactive) | 53 µM (inactive) | 19.1 µM (inactive) | 18.4 µM (inactive) | 31.6 µM (inactive) | 21.3 µM (inactive) | 15.7 µM (inactive) | 28.6 µM (inactive) | 31 µM (inactive) | 42.8 µM (inactive) | 45.5 µM (inactive) | 20.8 µM (inactive) | 15.1 µM (inactive) | 20.2 µM (inactive) | 28.8 µM (inactive) | 23.6 µM (inactive) | 27.2 µM (inactive) | –
2 | CCOC(=O)c1nnsc1N/N=C\c1ccc([N+](=O)[O-])cc1 | > 100 µM (inactive) | > 100 µM (inactive) | > 100 µM (inactive) | > 100 µM (inactive) | 70.1 µM (inactive) | – | > 100 µM (inactive) | > 100 µM (inactive) | > 100 µM (inactive) | > 100 µM (inactive) | > 100 µM (inactive) | > 100 µM (inactive) | > 100 µM (inactive) | > 100 µM (inactive) | > 100 µM (inactive) | – | > 100 µM (inactive) | > 100 µM (inactive) | > 100 µM (inactive) | > 100 µM (inactive)
3 | COc1ccc(C(OCC2OC(n3ccc(NC(=O)c4ccccc4)nc3=O)C(O)C2O)(c2ccccc2)c2ccccc2)cc1 (configuration not stated) | 3.13 µM (inactive) | 8.26 µM (inactive) | 1.89 µM (inactive) | 7.28 µM (inactive) | 3.44 µM (inactive) | – | 1.53 µM (inactive) | 2.22 µM (inactive) | 2.97 µM (inactive) | 3.42 µM (inactive) | 2 µM (inactive) | 3.37 µM (inactive) | 2.72 µM (inactive) | 2.03 µM (inactive) | 2 µM (inactive) | – | 2.1 µM (inactive) | 1.82 µM (inactive) | 2.72 µM (inactive) | –
4 | CC(C)(C)[Si](C)(C)OC1/C(=C/C#N)C(n2ccc(=O)[nH]c2=O)OC1CO (configuration not stated) | > 100 µM (inactive) | > 100 µM (inactive) | > 100 µM (inactive) | > 100 µM (inactive) | > 100 µM (inactive) | – | > 100 µM (inactive) | > 100 µM (inactive) | > 100 µM (inactive) | > 100 µM (inactive) | > 100 µM (inactive) | > 100 µM (inactive) | > 100 µM (inactive) | > 100 µM (inactive) | > 100 µM (inactive) | 3.01 µM (inactive) | > 100 µM (inactive) | – | – | –
5 | O=C(Nc1ccc(C(F)(F)F)cc1[N+](=O)[O-])c1cccnc1 | 3.14 µM (inactive) | 3.76 µM (inactive) | 2.15 µM (inactive) | 6.35 µM (inactive) | 9.48 µM (inactive) | 7.31 µM (inactive) | 2.04 µM (inactive) | 2.22 µM (inactive) | – | 8.85 µM (inactive) | 73.5 µM (inactive) | 7.08 µM (inactive) | 0.386 µM (active) | 5.09 µM (inactive) | 4.84 µM (inactive) | – | 9.1 µM (inactive) | 7.83 µM (inactive) | 4.61 µM (inactive) | 7.06 µM (inactive)
6 | CC(=O)c1c2c(cc3c1CC1(Cc4cc5c(cc4C1)CCCC5)C3)CCCC2 | – | > 100 µM (inactive) | 94.8 µM (inactive) | > 100 µM (inactive) | – | 55.1 µM (inactive) | 50.9 µM (inactive) | 19.4 µM (inactive) | > 100 µM (inactive) | 0.438 µM (active) | > 100 µM (inactive) | – | – | > 100 µM (inactive) | 77.1 µM (inactive) | > 100 µM (inactive) | 12.1 µM (inactive) | > 100 µM (inactive) | > 100 µM (inactive) | –
7 | COC(=O)C(Cc1c[nH]c2ccccc12)NC(=O)C(Cc1c[nH]c2ccccc12)NC(=O)C(Cc1c[nH]c2ccccc12)NC(=O)C(Cc1c[nH]c2ccccc12)NC(=O)C(Cc1c[nH]c2ccccc12)NC(=O)C(Cc1c[nH]c2ccccc12)NC(=O)OC(C)(C)C (configuration not stated) (Boc-WWWWWW-OMe; configuration not given here) | > 100 µM (inactive) | 32 µM (inactive) | 69.5 µM (inactive) | – | 47.3 µM (inactive) | 38.1 µM (inactive) | > 100 µM (inactive) | 5.25 µM (inactive) | – | 33 µM (inactive) | > 100 µM (inactive) | 32.9 µM (inactive) | 14.4 µM (inactive) | > 10 µM (inactive) | – | – | 63.4 µM (inactive) | 49.9 µM (inactive) | – | 44 µM (inactive)
8 | CN[C@@H](C)[C@@H](O)c1ccccc1 [PSEUDOEPHEDRINE HYDROCHLORIDE] | > 100 µM (inactive) | – | > 100 µM (inactive) | – | > 100 µM (inactive) | > 100 µM (inactive) | > 100 µM (inactive) | > 100 µM (inactive) | – | > 100 µM (inactive) | > 100 µM (inactive) | > 100 µM (inactive) | > 100 µM (inactive) | > 100 µM (inactive) | > 100 µM (inactive) | > 100 µM (inactive) | > 100 µM (inactive) | > 100 µM (inactive) | > 100 µM (inactive) | –
9 | Cc1ccc(NCC(=O)N2CC(=O)Nc3ccccc32)c(C)c1 | > 100 µM (inactive) | 95.1 µM (inactive) | > 100 µM (inactive) | > 100 µM (inactive) | > 100 µM (inactive) | > 100 µM (inactive) | > 100 µM (inactive) | – | > 100 µM (inactive) | > 100 µM (inactive) | > 100 µM (inactive) | – | > 100 µM (inactive) | > 100 µM (inactive) | > 100 µM (inactive) | > 100 µM (inactive) | > 100 µM (inactive) | > 100 µM (inactive) | > 100 µM (inactive) | –
10 | COC(=O)C(CCCCCCCC(C(=O)OC)C1=Nc2nnc(N)n2C1=O)C1=Nc2nnc(N)n2C1=O (configuration not stated) | > 100 µM (inactive) | > 100 µM (inactive) | > 100 µM (inactive) | > 100 µM (inactive) | > 100 µM (inactive) | > 100 µM (inactive) | > 100 µM (inactive) | – | 55.8 µM (inactive) | > 100 µM (inactive) | > 100 µM (inactive) | – | > 100 µM (inactive) | > 100 µM (inactive) | > 100 µM (inactive) | 65.8 µM (inactive) | > 100 µM (inactive) | > 100 µM (inactive) | > 100 µM (inactive) | –
11 | CC(=O)O[C@H]1CCC2[C@@H]3CCC4=C(O)c5nocc5C[C@]4(C)C3CC[C@@]21C (some centres not stated) | > 100 µM (inactive) | > 100 µM (inactive) | > 100 µM (inactive) | > 100 µM (inactive) | > 100 µM (inactive) | > 100 µM (inactive) | > 100 µM (inactive) | – | > 100 µM (inactive) | > 100 µM (inactive) | > 100 µM (inactive) | – | > 100 µM (inactive) | > 100 µM (inactive) | > 100 µM (inactive) | > 100 µM (inactive) | > 100 µM (inactive) | > 100 µM (inactive) | > 100 µM (inactive) | –
12 | Cc1ccc(S(=O)(=O)N/N=c2/sc3ccccc3n2C)cc1 | > 100 µM (inactive) | > 100 µM (inactive) | > 100 µM (inactive) | > 100 µM (inactive) | > 100 µM (inactive) | > 100 µM (inactive) | > 100 µM (inactive) | – | > 100 µM (inactive) | > 100 µM (inactive) | > 100 µM (inactive) | > 100 µM (inactive) | > 100 µM (inactive) | – | > 100 µM (inactive) | > 100 µM (inactive) | > 100 µM (inactive) | > 100 µM (inactive) | > 100 µM (inactive) | –
13 | Cc1cc(N=C2C=C(Br)C(=O)C(Br)=C2)cc(CN(CC(=O)O)CC(=O)O)c1O | > 100 µM (inactive) | > 100 µM (inactive) | > 100 µM (inactive) | > 100 µM (inactive) | > 100 µM (inactive) | – | > 100 µM (inactive) | > 100 µM (inactive) | > 100 µM (inactive) | > 100 µM (inactive) | > 100 µM (inactive) | > 100 µM (inactive) | > 100 µM (inactive) | > 100 µM (inactive) | > 100 µM (inactive) | – | > 100 µM (inactive) | > 100 µM (inactive) | > 100 µM (inactive) | –
14 | COc1ccccc1/C=N/C12CC3CC(CC(C3)C1)C2 | > 100 µM (inactive) | > 100 µM (inactive) | > 100 µM (inactive) | > 100 µM (inactive) | > 100 µM (inactive) | > 100 µM (inactive) | > 100 µM (inactive) | – | > 100 µM (inactive) | > 100 µM (inactive) | > 100 µM (inactive) | – | > 100 µM (inactive) | > 100 µM (inactive) | > 100 µM (inactive) | > 100 µM (inactive) | > 100 µM (inactive) | > 100 µM (inactive) | > 100 µM (inactive) | –
15 | C=CC(=O)Nc1ccc(NC(=O)C=C)c2c1C(=O)c1ccccc1C2=O | 26.4 µM (inactive) | 21.4 µM (inactive) | > 100 µM (inactive) | – | > 100 µM (inactive) | 5.07 µM (inactive) | 45.5 µM (inactive) | 21 µM (inactive) | – | 46.1 µM (inactive) | > 100 µM (inactive) | – | 33.5 µM (inactive) | 29.6 µM (inactive) | > 100 µM (inactive) | – | 21.6 µM (inactive) | 35.8 µM (inactive) | > 100 µM (inactive) | 29.9 µM (inactive)
